Assay results from patent US4308256A, “Method of inducing analgesia” (American Home Products Corporation, priority 1980, dated 1981).

Legend:
male Charles River rats = test: D'Amour-Smith rat tail-flick procedure (radiant heat, 8 second cut-off), intraventricular injection; type: in vivo
Experimental: Intraventricular cannulae, made of 27-gauge stainless steel tubing, are implanted in 300-400 g. male Charles River rats under pentobarbital anesthesia. After a recovery period of at least one week, the rats are restrained in a wire-mesh cylindrical chamber so that the tip of the tail can be positioned at the focal point of a radiant heat source. After an acclimatistation period of 5 minutes, the lamp is turned on and an electric clock activated. Movement of the tip of the tail exposes a photocell to the lamp, which turns off the thermal stimulus and stops the clock. If a rat fails to move its tail within 8 seconds, the heat is automatically turned off to prevent blistering. The intensity of the lamp is adjusted in each case to produce at least three baseline tail-flick latencies of 2.5-4.5 seconds. Tests are initially made every 2 minutes, then every 5 minutes and finally every 15 minutes.
Initially, using the above outlined procedure, the effects of intraventricularly administered leucine-enkephalin are tested in rats according to the above procedure.
The rat tail flick procedure is repeated, first by the simultaneous intraventricular injection of both leucine-enkephalin and bestatin and then by the initial injection of bestatin followed one hour later by the injection of leucine-enkephalin.
The above procedure is repeated again, however, the bestatin is administered first and then one hour later the leucine-enkephalin is administered.
The effects of bestatin alone are tested in rats according to the rat tail flick procedure.

aminopeptidase B = aminopeptidase B (Homo sapiens, UniProt Q9H4A4); settings: cited from earlier work
leucine aminopeptidase = settings: cited from earlier work
bleomycin hydrolase = target: T1, bleomycin hydrolase (Homo sapiens, UniProt Q13867); settings: cited from earlier work
T1 sequence (Q13867 1-455): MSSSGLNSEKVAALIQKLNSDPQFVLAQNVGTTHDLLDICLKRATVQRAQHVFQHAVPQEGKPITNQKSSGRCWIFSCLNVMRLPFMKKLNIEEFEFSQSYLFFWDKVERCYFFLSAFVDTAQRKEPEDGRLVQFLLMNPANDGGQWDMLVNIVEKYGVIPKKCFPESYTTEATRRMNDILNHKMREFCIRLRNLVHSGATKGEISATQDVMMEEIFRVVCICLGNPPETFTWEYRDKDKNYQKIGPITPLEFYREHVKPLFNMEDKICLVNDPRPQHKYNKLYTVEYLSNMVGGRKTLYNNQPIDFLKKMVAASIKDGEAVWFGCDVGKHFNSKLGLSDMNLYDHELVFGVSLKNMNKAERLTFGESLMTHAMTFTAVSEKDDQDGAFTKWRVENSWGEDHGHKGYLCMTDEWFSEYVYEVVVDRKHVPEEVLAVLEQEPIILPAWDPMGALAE

Sequence of aminopeptidase B (Q9H4A4 whole entry, species assumed): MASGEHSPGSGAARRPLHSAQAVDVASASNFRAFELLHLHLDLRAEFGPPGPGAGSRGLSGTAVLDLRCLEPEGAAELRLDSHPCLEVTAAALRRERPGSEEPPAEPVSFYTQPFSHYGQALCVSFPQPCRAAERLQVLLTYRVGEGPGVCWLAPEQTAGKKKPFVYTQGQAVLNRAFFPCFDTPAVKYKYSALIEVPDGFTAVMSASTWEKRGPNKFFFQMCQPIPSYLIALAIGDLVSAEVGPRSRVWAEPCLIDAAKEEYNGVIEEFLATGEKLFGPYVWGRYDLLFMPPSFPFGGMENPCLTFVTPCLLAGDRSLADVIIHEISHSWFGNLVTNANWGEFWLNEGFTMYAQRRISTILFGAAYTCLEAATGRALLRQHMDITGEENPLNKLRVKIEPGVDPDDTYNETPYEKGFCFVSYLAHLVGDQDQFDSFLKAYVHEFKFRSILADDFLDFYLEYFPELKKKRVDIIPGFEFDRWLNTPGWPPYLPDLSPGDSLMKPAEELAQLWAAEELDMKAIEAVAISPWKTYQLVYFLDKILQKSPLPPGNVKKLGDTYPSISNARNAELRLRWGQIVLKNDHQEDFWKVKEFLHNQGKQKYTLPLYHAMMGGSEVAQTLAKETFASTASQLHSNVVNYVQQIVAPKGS

Work on CC(C)C[C@H](NC(=O)[C@@H](O)[C@H](N)Cc1ccccc1)C(=O)O [bestatin, [(2S,3R)-3-amino-2-hydroxy-4-phenylbutanoyl]-L-leucine] yielded a Tail-flick latency (male Charles River rats; 400 μg bestatin alone into lateral ventricle, Rat 2, 30 min) of 8.00 s, a Tail-flick latency (male Charles River rats; 400 μg bestatin alone into lateral ventricle, Rat 2, 35 min) of 8.00 s and a Tail-flick latency (male Charles River rats; 400 μg bestatin alone into lateral ventricle, Rat 2, 40 min) of 8.00 s. For the same compound, the Tail-flick latency (male Charles River rats; 400 μg bestatin alone into lateral ventricle, Rat 2, 45 min) was 8.00 s, the Tail-flick latency (male Charles River rats; 400 μg bestatin alone into lateral ventricle, Rat 2, 50 min) was 8.00 s and the Tail-flick latency (male Charles River rats; 400 μg bestatin alone into lateral ventricle, Rat 2, 55 min) was 8.00 s. It also gave a Tail-flick latency (male Charles River rats; 400 μg bestatin alone into lateral ventricle, Rat 2, 60 min) of 8.00 s, a Tail-flick latency (male Charles River rats; 400 μg bestatin alone into lateral ventricle, Rat 2, 75 min) of 8.00 s and a Tail-flick latency (male Charles River rats; 400 μg bestatin alone into lateral ventricle, Rat 2, 90 min) of 8.00 s. For the same compound, the Tail-flick latency (male Charles River rats; 400 μg bestatin alone into lateral ventricle, Rat 2, 105 min) was 8.00 s, the Tail-flick latency (male Charles River rats; 400 μg bestatin alone into lateral ventricle, Rat 2, 120 min) was 8.00 s and the Tail-flick latency (male Charles River rats; 400 μg bestatin alone into lateral ventricle, Rat 2, 135 min) was 8.00 s. For the same compound, the Tail-flick latency (male Charles River rats; 400 μg bestatin alone into lateral ventricle, Rat 2, 150 min) was 8.00 s, the Tail-flick latency (male Charles River rats; 400 μg bestatin alone into lateral ventricle, Rat 2, 165 min) was 8.00 s and the Tail-flick latency (male Charles River rats; 400 μg bestatin alone into lateral ventricle, Rat 2, 180 min) was 8.00 s. For the same compound, the Tail-flick latency (male Charles River rats; 400 μg bestatin alone into lateral ventricle, Rat 2, 195 min) was 8.00 s, the Tail-flick latency (male Charles River rats; 400 μg bestatin alone into lateral ventricle, Rat 2, 210 min) was 8.00 s and the Tail-flick latency (male Charles River rats; 400 μg bestatin alone into lateral ventricle, Rat 2, 225 min) was 8.00 s. It also gave a Tail-flick latency (male Charles River rats; 400 μg bestatin alone into lateral ventricle, Rat 2, 240 min) of 8.00 s, a Tail-flick latency (male Charles River rats; 400 μg bestatin alone into lateral ventricle, Rat 2, 255 min) of 8.00 s and a Tail-flick latency (male Charles River rats; 400 μg bestatin alone into lateral ventricle, Rat 2, 270 min) of 8.00 s. The Tail-flick latency (male Charles River rats; 400 μg bestatin alone into lateral ventricle, Rat 2, 285 min) was 8.00 s, the Tail-flick latency (male Charles River rats; 400 μg bestatin alone into lateral ventricle, Rat 2, 300 min) was 5.19 s and the Tail-flick latency (male Charles River rats; 400 μg bestatin alone into lateral ventricle, Rat 2, 315 min) was 4.32 s. The Tail-flick latency (male Charles River rats; 400 μg bestatin alone into lateral ventricle, Rat 2, 330 min) was 4.11 s, the Tail-flick latency (male Charles River rats; 400 μg leucine-enkephalin + 200 μg bestatin injected together into lateral ventricle, 1 rat, 2 min) was 7.31 s and the Tail-flick latency (male Charles River rats; 400 μg leucine-enkephalin + 200 μg bestatin injected together into lateral ventricle, 1 rat, 4 min) was 7.56 s. For the same compound, the Tail-flick latency (male Charles River rats; 400 μg leucine-enkephalin + 200 μg bestatin injected together into lateral ventricle, 1 rat, 6 min) was 5.78 s, the Tail-flick latency (male Charles River rats; 400 μg leucine-enkephalin + 200 μg bestatin injected together into lateral ventricle, 1 rat, 8 min) was 6.69 s and the Tail-flick latency (male Charles River rats; 400 μg leucine-enkephalin + 200 μg bestatin injected together into lateral ventricle, 1 rat, 10 min) was 6.99 s. It also gave a Tail-flick latency (male Charles River rats; 400 μg leucine-enkephalin + 200 μg bestatin injected together into lateral ventricle, 1 rat, 12 min) of 8.00 s, a Tail-flick latency (male Charles River rats; 400 μg leucine-enkephalin + 200 μg bestatin injected together into lateral ventricle, 1 rat, 14 min) of 8.00 s and a Tail-flick latency (male Charles River rats; 400 μg leucine-enkephalin + 200 μg bestatin injected together into lateral ventricle, 1 rat, 16 min) of 6.50 s. The Tail-flick latency (male Charles River rats; 400 μg leucine-enkephalin + 200 μg bestatin injected together into lateral ventricle, 1 rat, 18 min) was 5.31 s, the Tail-flick latency (male Charles River rats; 400 μg leucine-enkephalin + 200 μg bestatin injected together into lateral ventricle, 1 rat, 20 min) was 2.31 s and the Tail-flick latency (male Charles River rats; 400 μg leucine-enkephalin + 200 μg bestatin injected together into lateral ventricle, 1 rat, 22 min) was 8.00 s. For the same compound, the Tail-flick latency (male Charles River rats; 400 μg leucine-enkephalin + 200 μg bestatin injected together into lateral ventricle, 1 rat, 24 min) was 6.23 s, the Tail-flick latency (male Charles River rats; 400 μg leucine-enkephalin + 200 μg bestatin injected together into lateral ventricle, 1 rat, 26 min) was 8.00 s and the Tail-flick latency (male Charles River rats; 400 μg leucine-enkephalin + 200 μg bestatin injected together into lateral ventricle, 1 rat, 28 min) was 8.00 s. It also gave a Tail-flick latency (male Charles River rats; 400 μg leucine-enkephalin + 200 μg bestatin injected together into lateral ventricle, 1 rat, 30 min) of 8.00 s, a Tail-flick latency (male Charles River rats; 400 μg leucine-enkephalin + 200 μg bestatin injected together into lateral ventricle, 1 rat, 32 min) of 4.90 s and a Tail-flick latency (male Charles River rats; 400 μg leucine-enkephalin + 200 μg bestatin injected together into lateral ventricle, 1 rat, 34 min) of 8.00 s. It also gave a Tail-flick latency (male Charles River rats; 400 μg leucine-enkephalin + 200 μg bestatin injected together into lateral ventricle, 1 rat, 36 min) of 8.00 s, a Tail-flick latency (male Charles River rats; 400 μg leucine-enkephalin + 200 μg bestatin injected together into lateral ventricle, 1 rat, 38 min) of 4.75 s and a Tail-flick latency (male Charles River rats; 400 μg leucine-enkephalin + 200 μg bestatin injected together into lateral ventricle, 1 rat, 40 min) of 8.00 s. The Tail-flick latency (male Charles River rats; 400 μg leucine-enkephalin + 200 μg bestatin injected together into lateral ventricle, 1 rat, 42 min) was 3.21 s, the Tail-flick latency (male Charles River rats; 400 μg leucine-enkephalin + 200 μg bestatin injected together into lateral ventricle, 1 rat, 44 min) was 3.29 s and the Tail-flick latency (male Charles River rats; 400 μg leucine-enkephalin + 200 μg bestatin injected together into lateral ventricle, 1 rat, 46 min) was 2.47 s. The “Analgesia induced by bestatin alone” value (male Charles River rats; 400 μg level, lateral ventricle, rats) was “very potent analgesia”, the “Effect on the analgesic effects of leucine-enkephalin” value (male Charles River rats; bestatin administered one hour prior to leucine-enkephalin, intraventricular, rat) was “can be extended by bestatin” and the “Effect on the analgesic effect of leucine-enkephalin” value (male Charles River rats; bestatin given simultaneously with leucine-enkephalin, intraventricular, rat) was “very significantly extend the analgesic effect of leucine-enkephalin”. For the same compound, the “Inhibition of aminopeptidase B” value (aminopeptidase B) was “inhibitors”, the “Inhibition of leucine aminopeptidase” value (leucine aminopeptidase) was “inhibitors” and the “Inhibition of bleomycin hydrolase” value (bleomycin hydrolase) was “inhibitors”.
